From patent US8445505B2 (IRM LLC, priority 2008, dated 2013) come the findings set out here.

In this assay the target is IGF1R Ba/F3 (Homo sapiens, UniProt P08069). The assay is described as follows: Ba/F3 Cell Viability Inhibition Assay (Tel-TK transformed Ba/F3 lines). The format is cell-based, murine. The arrangement: the printed alternative. The note with it: Tel-TK (IGF1R) transformed Ba/F3 cells, 48 hours incubation, cell viability (Britelite luminescence). The source says:
Ba/F3 is a murine IL-3-dependent pro-B lymphoma cell line. Parental Ba/F3 cells are used to generate a panel of sublines whose proliferation and survival is rendered IL-3-independent by stable transduction with individual tyrosine kinases activated by fusion with the amino-terminal portion of TEL (amino acid 1-375) or BCR. In order to generate Ba/F3 cell lines transformed by Tel-Tyrosine Kinase (TK) fusions, parental Ba/F3 cells are infected with a retrovirus harboring each TEL-fusion kinase and subjected to puromycin selection and IL-3 withdrawal to obtain IL-3-independent, transformed Ba/F3 cells.
Each transformed Ba/F3 cells are cultured in RPMI-1640 media (Gibco Cat #11875093, Carlsbad, Calif.) supplemented with 10% FBS (Hyclone Cat #SV30014.03, Logan, Utah), 4.5 g/L glucose (Sigma #G5400, St.Louis, Mo.), 1.5 g/L sodium bicarbonate (Biowhittaker #17-613E, Walkersville, Md.) and Pen/Strep (Gibco #10378-016, Carlsbad, Calif.). Cells are splitted twice weekly.
The potency of test compounds against various Tel-TK transformed Ba/F3 lines is determined as follows. Exponentially growing BaF3 Tel-TK cells are diluted in fresh medium to 75,000 cells/mL and seeded into 384-well plates (3750 cells/well) at 50 μL/well using a gill liquid dispenser (BioTek, Winooski, Vt., USA). Duplicate plates are run for each cell line. Test and control compounds are serially diluted with DMSO and arrayed in a polypropylene 384-well plate. 50 nL of compound is transferred into the assay plates using a pin-transfer device, and the plates are incubated at 37° C. (5% CO2) for 48 hours. 25 μL Britelite (Perkin Elmer) is added and luminescence is quantified using Analyst GT (Molecular Devices). Custom curve-fitting software is used to produce a logistic fit of percent cell viability as a function of the logarithm of inhibitor concentration. The IC50 is interpolated as the concentration of compound needed to reduce cell viability to 50% of a DMSO control. Parental Ba/F3 cells that are maintained and cultured in presence of IL-3 (1 ng/ml in final) are diluted in fresh medium containing IL-3 (1 ng/ml in final) to 75,000 cells/mL following the same procedure as described above.

Chain of IGF1R Ba/F3 (P08069 999-1274 limits assumed): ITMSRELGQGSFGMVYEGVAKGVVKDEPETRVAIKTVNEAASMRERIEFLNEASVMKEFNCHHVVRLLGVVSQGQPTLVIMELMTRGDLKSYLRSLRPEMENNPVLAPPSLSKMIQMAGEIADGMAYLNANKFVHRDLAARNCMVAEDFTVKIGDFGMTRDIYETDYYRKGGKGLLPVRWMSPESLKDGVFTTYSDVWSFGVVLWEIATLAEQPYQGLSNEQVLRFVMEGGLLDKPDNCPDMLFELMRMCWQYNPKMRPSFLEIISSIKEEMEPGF

As usually defined, the IC50 is the point on the concentration scale where inhibition reaches its midpoint. A high value points to a need for much substance. For `Cc1cc(Nc2nc(Nc3cc(C)c([C@H]4CC[C@@H](O)CC4)cc3F)ncc2Cl)n[nH]1` [Compound 73, Cis-4-(4-(5-chloro-4-(5-methyl-1H-pyrazol-3-ylamino)pyrimidin-2-ylamino)-5-fluoro-2-methylphenyl)cyclohexanol], the half-maximal inhibitory concentration (IC50) came out at 32 nM.
As for `Cc1cc(Nc2nc(Nc3cc(C)c(C(=O)NCCN(C)C)cc3C)ncc2Cl)n[nH]1` [Compound 31, 4-(5-chloro-4-(5-methyl-1H-pyrazol-3-ylamino)pyrimidin-2-ylamino)-N-(2-(dimethylamino)ethyl)-2,5-dimethylbenzamide], the figure is 659 nM; as for `Cc1cc(Nc2nc(Nc3cc(C)c([C@H]4CC[C@@H](N5CCCCC5)CC4)cc3C)ncc2Cl)n[nH]1` [Compound 43, Cis-5-chloro-N2-(2,5-dimethyl-4-(4-(pipcridin-1-yl)cyclohexyl)phenyl)-N4-(5-methyl-1H-pyrazol-3-yl)pyrimidine-2,4-diamine], 8 nM.
The compound `Cc1cc(Nc2nc(Nc3cc(C)c([C@H]4CC[C@H](N5C[C@@H](O)[C@H](O)C5)CC4)cc3F)ncc2C(F)(F)F)n[nH]1` [Compound 70, (3R,4R)-1-((trans)-4-(5-fluoro-2-methyl-4-(4-(5-methyl-1H-pyrazol-3-ylamino)-5-(trifluoromethyl)pyrimidin-2-ylamino)phenyl)cyclohexyl)pyrrolidine-3,4-diol] gave a concentration for half-maximal inhibition (IC50) of 248 nM.
As to `COc1cc(-c2cnco2)c(C)cc1Nc1ncc(Cl)c(Nc2cc(C)[nH]n2)n1` [Compound 21, 5-chloro-N2-(2-methoxy-5-methyl-4-(oxazol-5-yl)phenyl)-N4-(5-methyl-1H-pyrazol-3-yl)pyrimidine-2,4-diamine], inhibition was half-maximal at 169 nM (IC50).
As for `Cc1cc(Nc2nc(Nc3ccc(C4CCN(CC(O)C(F)(F)F)CC4)c4ccccc34)ncc2Cl)n[nH]1` (centres unmarked) [Compound 88, 3-(4-(4-(5-chloro-4-(5-methyl-1H-pyrazol-3-ylamino)pyrimidin-2-ylamino)naphthalen-1-yl)piperidin-1-yl)-1,1,1-trifluoropropan-2-ol], the figure is 346 nM; as for `Cc1cc(Nc2nc(Nc3cc(C)c(-c4ccncc4)cc3F)ncc2Cl)n[nH]1` [Compound 2, 5-chloro-N2-(2-fluoro-5-methyl-4-(pyridin-4-yl)phenyl)-N4-(5-methyl-1H-pyrazol-3-yl)pyrimidine-2,4-diamine], 103 nM.
Then `O=C1NCc2cc(F)c(Nc3ncc(Cl)c(Nc4cc(C5CC5)[nH]n4)n3)cc21` [Compound 81, 6-(5-chloro-4-(5-cyclopropyl-1H-pyrazol-3-ylamino)pyrimidin-2-ylamino)-5-fluoroisoindolin-1-one], with 2300 nM.
Then `Cc1cc(Nc2nc(Nc3cc(C)c([C@H]4CC[C@@H](N5CCOCC5)CC4)cc3C)ncc2C(F)(F)F)n[nH]1` [Compound 66, N^2-(2,5-dimethyl-4-(cis-4-morpholinocyclohexyl)phenyl)-N^4-(5-methyl-1H-pyrazol-3-yl)-5-(trifluoromethyl)pyrimidine-2,4-diamine], with 14 nM; and `Cc1cc(Nc2nc(Nc3cc(C)c([C@H]4CC[C@H](N5CCOCC5)CC4)cc3C)ncc2Cl)n[nH]1` [Compound 37, 5-chloro-N^2-(2,5-dimethyl-4-(4-trans-morpholinocyclohexyl)phenyl)-N^4-(5-methyl-1H-pyrazol-3-yl)pyrimidine-2,4-diamine], with 11 nM; and `Cc1cc(-c2cc(C)c(Nc3ncc(Cl)c(Nc4cc(C)[nH]n4)n3)cc2C)on1` [Compound 18, 5-chloro-N2-(2,5-dimethyl-4-(3-methylisoxazol-5-yl)phenyl)-N4-(5-methyl-1H-pyrazol-3-yl)pyrimidine-2,4-diamine], with 276 nM.
Consider `Cc1cc(Nc2nc(Nc3cc(C)c([C@H]4CC[C@@H](N5C[C@@H](O)[C@H](O)C5)CC4)cc3F)ncc2C(F)(F)F)n[nH]1` [Compound 71, (3R,4R)-1-((cis)-4-(5-fluoro-2-methyl-4-(4-(5-methyl-1H-pyrazol-3-ylamino)-5-(trifluoromethyl)pyrimidin-2-ylamino)phenyl)cyclohexyl)pyrrolidine-3,4-diol], for which half-maximal inhibition (IC50) was put at 109 nM.
Consider `Cc1cc(Nc2nc(Nc3cc(C)c(-c4csc(C)n4)cc3C)ncc2Cl)n[nH]1` [Compound 24, 5-chloro-N2-(2,5-dimethyl-4-(2-methylthiazol-4-yl)phenyl)-N4-(5-methyl-1H-pyrazol-3-yl)pyrimidine-2,4-diamine], for which the midpoint of inhibition, the IC50, lay at 106 nM.
`C/C(=N\OCCO)c1cc(C)c(Nc2ncc(Cl)c(Nc3cc(C)[nH]n3)n2)cc1C` [Compound 28, 1-(4-(5-chloro-4-(5-methyl-1H-pyrazol-3-ylamino)pyrimidin-2-ylamino)-2,5-dimethylphenyl)ethanone O-2-hydroxyethyloxime]: it took 141 nM to reach half-maximal inhibition (IC50).
`Cc1cc(Nc2nc(Nc3cc(C)c([C@H]4CC[C@H](N5CCOCC5)CC4)cc3F)ncc2Cl)n[nH]1` [Compound 50, Trans-5-chloro-N2-(2-fluoro-5-methyl-4-(4-morpholinocyclohexyl)phenyl)-N4-(5-methyl-1H-pyrazol-3-yl)pyrimidine-2,4-diamine] came in with an IC50 of 31 nM.
In turn, `Cc1cc(-c2cc(C)c(Nc3ncc(Cl)c(Nc4cc(C)[nH]n4)n3)cc2C)[nH]n1` [Compound 22, 5-chloro-N2-(2,5-dimethyl-4-(3-methyl-1H-pyrazol-5-yl)phenyl)-N4-(5-methyl-1H-pyrazol-3-yl)pyrimidine-2,4-diamine] showed a concentration for half-maximal inhibition (IC50) of 166 nM.
In the case of `Cc1cc(Nc2nc(Nc3cc(C)c(-c4ccsc4)cc3F)ncc2Cl)n[nH]1` [Compound 10, 5-chloro-N2-(2-fluoro-5-methyl-4-(thiophen-3-yl)phenyl)-N4-(5-methyl-1H-pyrazol-3-yl)pyrimidine-2,4-diamine], half-maximal inhibition (IC50) was put at 833 nM.
In turn, `Cc1cc(Nc2nc(Nc3cc(C)c(-c4nccn4C)cc3C)ncc2Cl)n[nH]1` [Compound 25, 5-chloro-N2-(2,5-dimethyl-4-(1-methyl-1H-imidazol-2-yl)phenyl)-N4-(5-methyl-1H-pyrazol-3-yl)pyrimidine-2,4-diamine] had an IC50 of 71 nM.
Then `C/C(=N\O)c1cc(C)c(Nc2ncc(Cl)c(Nc3cc(C)[nH]n3)n2)cc1C` [Compound 29, 1-(4-(5-chloro-4-(5-methyl-1H-pyrazol-3-ylamino)pyrimidin-2-ylamino)-2,5-dimethylphenyl)ethanone oxime], with 51 nM.
As for `Cc1cc(Nc2nc(Nc3cc(C)c([C@H]4CC[C@@H](NC5CC5)CC4)cc3C)ncc2Cl)n[nH]1` [Compound 47, Cis-5-chloro-N2-(4-(4-(cyclopropylamino)cyclohexyl)-2,5-dimethylphenyl)-N4-(5-methyl-1H-pyrazol-3-yl)pyrimidine-2,4-diamine], the figure is 17 nM.
Then `Cc1cc(Nc2nc(Nc3cc(C)c(-c4cnn(C)c4)cc3F)ncc2Cl)n[nH]1` [Compound 1, 5-chloro-N2-(2-fluoro-5-methyl-4-(1-methyl-1H-pyrazol-4-yl)phenyl)-N4-(5-methyl-1H-pyrazol-3-yl)pyrimidine-2,4-diamine], with 67 nM; and `Cc1cc(Nc2nc(Nc3ccc(C4CCN(CC(N)=O)CC4)c4ccncc34)ncc2Cl)n[nH]1` [Compound 77, 2-(4-(8-(5-chloro-4-(5-methyl-1H-pyrazol-3-ylamino)pyrimidin-2-ylamino)isoquinolin-5-yl)piperidin-1-yl)acetamide], with 3300 nM.
Compound `Cc1cc(Nc2nc(Nc3cc(C)c([C@H]4CC[C@@H](N5CC[C@H](O)C5)CC4)cc3F)ncc2Cl)n[nH]1` [Compound 54, (S)-1-((Cis)-4-(4-(5-chloro-4-(5-methyl-1H-pyrazol-3-ylamino)pyrimidin-2-ylamino)-5-fluoro-2-methylphenyl)cyclohexyl)pyrrolidin-3-ol] came in with an IC50 of 16 nM.
Then `Cc1cc(Nc2nc(Nc3cc(C)c(-c4cnc5ccccc5c4)cc3F)ncc2Cl)n[nH]1` [Compound 7, 5-chloro-N2-(2-fluoro-5-methyl-4-(quinolin-3-yl)phenyl)-N4-(5-methyl-1H-pyrazol-3-yl)pyrimidine-2,4-diamine], with 579 nM; and `Cc1cc(-c2cc(C)c(Nc3ncc(Cl)c(Nc4cc(C)[nH]n4)n3)cc2C)ccn1` [Compound 15, 5-chloro-N2-(2,5-dimethyl-4-(2-methylpyridin-4-yl)phenyl)-N4-(5-methyl-1H-pyrazol-3-yl)pyrimidine-2,4-diamine], with 39 nM.
Then `Cc1cc(Nc2nc(Nc3cc(C)c(-c4ccccn4)cc3F)ncc2Cl)n[nH]1` [Compound 6, 5-chloro-N2-(2-fluoro-5-methyl-4-(pyridin-2-yl)phenyl)-N4-(5-methyl-1H-pyrazol-3-yl)pyrimidine-2,4-diamine], with 294 nM.
